Earlier results, collected in patent publication US10208167B2, “Cyclodextrins with one or more poly(ethylene glycol) units, inclusion compounds and drug delivery vehicles including the same, and methods of making and using the same” (The Board of Trustees of the California State University, priority 2015, dated 2019).

How the values were obtained:
[1] = tested on: human salivary and pancreatic amylases

Row | SMILES | hydrolysis by human salivary and pancreatic amylases [1] | fermentation in the intestinal microflora (intestinal microflora)
1 | OC[C@H]1O[C@@H]2O[C@H]3[C@H](O)[C@@H](O)[C@@H](O[C@H]4[C@H](O)[C@@H](O)[C@@H](O[C@H]5[C@H](O)[C@@H](O)[C@@H](O[C@H]6[C@H](O)[C@@H](O)[C@@H](O[C@H]7[C@H](O)[C@@H](O)[C@@H](O[C@H]8[C@H](O)[C@@H](O)[C@@H](O[C@H]9[C@H](O)[C@@H](O)[C@@H](O[C@H]1[C@H](O)[C@H]2O)O[C@@H]9CO)O[C@@H]8CO)O[C@@H]7CO)O[C@@H]6CO)O[C@@H]5CO)O[C@@H]4CO)O[C@@H]3CO [γ-CD, γ-cyclodextrin] | not hydrolyzed | 
2 | OC[C@H]1O[C@@H]2O[C@H]3[C@H](O)[C@@H](O)[C@@H](O[C@H]4[C@H](O)[C@@H](O)[C@@H](O[C@H]5[C@H](O)[C@@H](O)[C@@H](O[C@H]6[C@H](O)[C@@H](O)[C@@H](O[C@H]7[C@H](O)[C@@H](O)[C@@H](O[C@H]1[C@H](O)[C@H]2O)O[C@@H]7CO)O[C@@H]6CO)O[C@@H]5CO)O[C@@H]4CO)O[C@@H]3CO [α-CD, α-cyclodextrin] | not hydrolyzed | can be fermented
